# Patent US8304223B2, “Isoforms of pig liver esterase” (Enzymicals AG, priority 2007, dated 2012)
# Like-named read-outs stand apart in the source and are kept apart here.
# T1: PLE 1 (γ-PLE) (Sus scrofa, UniProt Q29550)
# T1 construct: made in house; host or cells: E. coli Origami (DE3) with pGro7 (GroEL/GroES coexpression), crude extract
# T1 sequence (Q29550 with tags, fused parts or gaps): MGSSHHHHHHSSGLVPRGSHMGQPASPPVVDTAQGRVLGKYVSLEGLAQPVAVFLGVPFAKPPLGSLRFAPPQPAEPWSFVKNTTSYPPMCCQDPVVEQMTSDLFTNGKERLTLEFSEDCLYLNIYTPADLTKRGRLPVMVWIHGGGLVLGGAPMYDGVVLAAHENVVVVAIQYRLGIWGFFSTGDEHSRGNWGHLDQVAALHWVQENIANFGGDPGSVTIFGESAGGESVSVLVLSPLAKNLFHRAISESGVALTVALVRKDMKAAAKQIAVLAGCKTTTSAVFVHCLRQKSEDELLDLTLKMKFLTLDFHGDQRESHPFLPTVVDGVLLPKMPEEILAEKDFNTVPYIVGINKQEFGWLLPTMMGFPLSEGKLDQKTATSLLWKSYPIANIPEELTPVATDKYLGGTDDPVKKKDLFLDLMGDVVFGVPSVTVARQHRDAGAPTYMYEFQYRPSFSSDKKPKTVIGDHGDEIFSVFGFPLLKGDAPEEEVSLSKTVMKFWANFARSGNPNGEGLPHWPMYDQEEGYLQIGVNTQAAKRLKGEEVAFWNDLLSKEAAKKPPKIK
# T2: PLE 2 (Sus scrofa, UniProt Q29550, F477A/K481R/L479F)
# T2 construct: made in house; host or cells: E. coli Origami (DE3) with pGro7 (GroEL/GroES coexpression), crude extract
# T2 sequence (Q29550 19-562 F477A/L479F/K481R): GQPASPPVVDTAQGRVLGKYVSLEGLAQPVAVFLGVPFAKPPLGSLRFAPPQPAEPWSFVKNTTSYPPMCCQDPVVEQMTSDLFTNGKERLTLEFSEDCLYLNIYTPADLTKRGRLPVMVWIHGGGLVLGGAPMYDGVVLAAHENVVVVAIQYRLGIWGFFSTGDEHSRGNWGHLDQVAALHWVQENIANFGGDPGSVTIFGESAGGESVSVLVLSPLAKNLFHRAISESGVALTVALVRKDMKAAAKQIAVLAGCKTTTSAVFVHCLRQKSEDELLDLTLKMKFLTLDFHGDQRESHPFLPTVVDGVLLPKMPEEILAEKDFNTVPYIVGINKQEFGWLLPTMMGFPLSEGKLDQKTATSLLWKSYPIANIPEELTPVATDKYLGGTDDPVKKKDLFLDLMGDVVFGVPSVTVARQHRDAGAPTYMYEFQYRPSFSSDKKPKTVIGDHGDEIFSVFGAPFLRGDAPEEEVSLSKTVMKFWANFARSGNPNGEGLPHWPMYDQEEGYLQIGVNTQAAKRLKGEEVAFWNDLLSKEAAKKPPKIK
# B1: PLE 1: previously disclosed γ-isoenzyme of pig liver esterase (Seq. ID No. 2), recombinant from E. coli Origami with GroEL/ES (protein)
# chain: T1 sequence (Q29550 with tags, fused parts or gaps)
# modifications: Pig liver
# Key:
# PLE 1 (γ-PLE) = molecular target: T1, PLE 1 (γ-PLE); assay: biochemical; assay type: biochemical, pig; conditions: 25° C.; for Remaining activity in %: inhibitor 1 mM; for remaining activity at 10 µM: inhibitor 0.01 mM
# Method: (§1) Esterase activity was determined spectrophotometrically in sodium phosphate buffer (50 mM) by means of p-nitrophenyl acetate (10 mM, dissolved in dimethyl sulfoxide) as substrate. The amount of p-nitrophenol generated was determined at a wavelength of 410 nm (ε=15*10^3 M^−1 cm^−1) at RT and pH 7.5. 1 unit (U) is defined as the amount of enzyme capable of converting 1 μM p-nitrophenol per minute under analytical conditions (Krebsfänger, N., et. al., (1998) Enzyme Microb. Technol, 22, 641-646).
# (§2) The inhibitability of the new PLE variants was determined by treating the crude extracts with any of three esterase inhibitors. […] Samples were taken at certain points in time and the remaining esterase activity was determined by the pNPA assay.
# PLE 2 = molecular target: T2, PLE 2; assay: biochemical; assay type: biochemical, pig; conditions: 25° C.; for Remaining activity in %: inhibitor 1 mM; for remaining activity at 10 µM: inhibitor 0.01 mM
# Method: as §1, §2
# PLE 5 = assay: Influence of inhibitors, remaining activity by pNPA assay; assay type: biochemical, pig; conditions: 25° C.
# Method: as §1, §2
# PLE 4 = assay: as above; assay type: biochemical, pig; conditions: 25° C.
# Method: as §1, §2
# PLE 3 = assay: as above; assay type: biochemical, pig; conditions: 25° C.
# Method: as §1, §2
# [1] = Kinetic resolution of the racemates of substrate 3; assay type: biochemical; conditions: calculated according to Chen et al.
# Method: (§3) Hydrolysis was carried out in 1.5 ml reaction vessels in a thermomixer (Thermomixer comfort Eppendorf, Hamburg, Germany) at 37° C. 0.5 U esterase crude extract (based on the pNPA assay) were used for 1 ml of substrate solution (10 mM in sodium phosphate buffer pH 7.5, 50 mM). The reaction was stopped by extracting the mixture with dichloromethane, and the organic phase was dried over anhydrous sodium sulfate.
# (§4) Enantiomeric purity and conversion were determined by gas chromatography. Enantioselectivity of the variant enzymes was calculated according to Chen et al. (C. S. Chen, Y. Fujimoto, G. Girdaukas, C. J. Sih, J. Am. Chem. Soc. 1982, 104, 7294.).
# (§5) For a more detailed description of the synthesis of the substrates and the retention times in GC analysis, see Musidlowska-Persson, A. and Bornscheuer, U. T., “Substrate Specificity of the γ-isoenzyme of recombinant pig liver esterase towards acetates of secondary alcohols” J. Mol. Catal. B. Enzym. 2002, 19-20, 129-133.
# [2] = pH stat activity with achiral ester ethyl acetate; assay type: biochemical; conditions: purified enzyme, pH stat at 37° C. and pH 7.5, 10 min
# Method: (§6) Esterase substrate specificity was analyzed at constant pH. A known amount of esterase was added to an emulsion (20 mL) containing an ester substrate (5% (v/v); tributyrin, ethyl acetate, triolein or methyl butyrate) and gum arabic (2% (w/v)) at 37° C. The acid liberated was counter titrated automatically in a pH statiometer (Schott, Mainz, Germany) with 0.01 N NaOH in order to maintain a constant pH of 7.5. 1 unit (U) is defined as the amount of enzyme capable of generating 1 μM acid per minute under analytical conditions.
# [3] = pNPA assay of esterase activity (crude extracts); assay type: biochemical; conditions: crude extract, N-terminal His6 tag
# Method: The chaperones were coexpressed with the PLE isoenzymes in 150 ml of LB medium containing 20 μg mL^−1 chloramphenicol and 50 μg mL^−1 ampicillin for plasmid selection. Chaperone expression was immediately initiated by adding 1 mg mL^−1 L-arabinose. PLE production was induced at OD600=0.5 by adding 40 μM IPTG. The cells were removed by centrifugation after 24 h, resuspended in 10 ml of sodium phosphate buffer (50 mM, pH 7.5) and disrupted using ultrasound. Cell debris was removed by centrifugation, and the supernatant was used for further experiments (crude cell extract). Protein content and esterase activity were determined according to Bradford or using the pNPA assay.
# as §1
# [4] = pH stat activity with achiral ester tributyrin; assay type: biochemical; conditions: purified enzyme, pH stat at 37° C. and pH 7.5, 10 min
# Method: as §6
# [5] = Native PAGE with Fast Red activity staining; assay type: biochemical; conditions: crude extracts, Fast Red staining with α-naphthyl acetate
# Method: A mixture containing the crude extract of recombinantly produced PLE (5-15 μL, corresponding to 0.05-0.15 U of pNPA analysis) was mixed with buffer solution (20% (w/v) glycerol; 0.0025% (w/v) bromophenol blue in dH2O) (5-10 μL). Aliquots thereof were separated on a native polyacrylamide gel (7.5%). For activity staining, the gel was incubated in a mixture of freshly prepared α-naphthyl acetate and Fast Red. Formation of a red complex between α-naphthol generated and Fast Red indicated hydrolytic activity of the esterase. (Krebsfänger, N., et. al., (1998) Enzyme Microb. Technol, 22, 641-646). The gel was then stained with Coomassie Brilliant Blue.
# Esterase activity was checked by applying the crude extracts to a native gel which was then incubated in Fast Red solution with α-naphthyl acetate as substrate. This was followed by Coomassie staining (FIG. 4: Native PAGE of the crude extracts of PLE2, clone 12, PLE3, PLE4, PLE5, γPLE and the E. coli Origami pGro7 wild type (negative control). Left-hand side: Fast Red staining with α-naphthyl acetate, right-hand side: subsequent Coomassie Brilliant Blue staining).
# [6] = Kinetic resolution of the racemates of substrate 1; assay type: biochemical; conditions: calculated according to Chen et al.
# Method: as §3, §4, §5
# [7] = pH stat activity with achiral ester triolein; assay type: biochemical; conditions: purified enzyme, pH stat at 37° C. and pH 7.5, 10 min
# Method: as §6
# [8] = substrate 4; literature data (*); cited from earlier work
# [9] = Kinetic resolution of the racemates of substrate 2; assay type: biochemical; conditions: calculated according to Chen et al.
# Method: as §3, §4, §5
# [10] = pH stat activity with achiral ester methyl butyrate; assay type: biochemical; conditions: purified enzyme, pH stat at 37° C. and pH 7.5, 10 min
# Method: as §6
# [11] = pH stat activity with achiral ester ethyl caprylate; assay type: biochemical; conditions: purified enzyme, pH stat at 37° C. and pH 7.5, 10 min
# Method: Esterase substrate specificity was analyzed at constant pH. […] The acid liberated was counter titrated automatically in a pH statiometer (Schott, Mainz, Germany) with 0.01 N NaOH in order to maintain a constant pH of 7.5. 1 unit (U) is defined as the amount of enzyme capable of generating 1 μM acid per minute under analytical conditions.
molecule,measurement,setting,value
"[F-].[Na+] [NaF, sodium fluoride]",Remaining activity in %,PLE 1 (γ-PLE); 5 min,20%
same,Remaining activity in %,PLE 1 (γ-PLE); 30 min,21%
same,Remaining activity in %,PLE 2; 5 min,17%
same,Remaining activity in %,PLE 2; 30 min,15%
same,Remaining activity in %,"PLE 5; inhibitor 1 mM, 5 min",83%
same,Remaining activity in %,"PLE 5; inhibitor 1 mM, 30 min",88%
same,Remaining activity in %,"PLE 4; inhibitor 1 mM, 5 min",64%
same,Remaining activity in %,"PLE 4; inhibitor 1 mM, 30 min",66%
same,Remaining activity in %,"PLE 3; inhibitor 1 mM, 5 min",44%
same,Remaining activity in %,"PLE 3; inhibitor 1 mM, 30 min",46%
"O=S(=O)(F)Cc1ccccc1 [Phenylmethylsulfonyl fluoride (PMSF), phenylmethylsulfonyl fluoride]",Remaining activity in %,"PLE 5; inhibitor 0.01 mM, 1 min",88%
same,Remaining activity in %,"PLE 5; inhibitor 0.01 mM, 5 min",76%
same,Remaining activity in %,"PLE 5; inhibitor 0.01 mM, 30 min",24%
same,Remaining activity in %,"PLE 5; inhibitor 0.01 mM, 60 min",3%
same,Remaining activity in %,"PLE 4; inhibitor 0.01 mM, 1 min",78%
same,Remaining activity in %,"PLE 4; inhibitor 0.01 mM, 5 min",56%
same,Remaining activity in %,"PLE 4; inhibitor 0.01 mM, 30 min",7%
same,Remaining activity in %,"PLE 4; inhibitor 0.01 mM, 60 min",2%
same,Remaining activity in %,"PLE 3; inhibitor 0.01 mM, 1 min",77%
same,Remaining activity in %,"PLE 3; inhibitor 0.01 mM, 5 min",51%
same,Remaining activity in %,"PLE 3; inhibitor 0.01 mM, 30 min",7%
same,Remaining activity in %,"PLE 3; inhibitor 0.01 mM, 60 min",5%
"CNC(=O)Oc1ccc2c(c1)[C@]1(C)CCN(C)[C@@H]1N2C [Physostigmine, physostigmine]",remaining activity at 10 µM,PLE 1 (γ-PLE); 1 min,41%
same,remaining activity at 10 µM,PLE 1 (γ-PLE); 5 min,12%
same,remaining activity at 10 µM,PLE 1 (γ-PLE); 30 min,7%
same,remaining activity at 10 µM,PLE 2; 1 min,61%
same,remaining activity at 10 µM,PLE 2; 5 min,25%
same,remaining activity at 10 µM,PLE 2; 30 min,6%
B1,E (enantioselectivity),[1],72
same,"Specific activity, Ethyl acetate",[2],38
same,Volume activity,[3],11 U/ml
same,"Specific activity, Tributyrin",[4],306
same,Esterase activity (active bands) in native gel,[5],Active esterase bands are visible
same,E (enantioselectivity),[6],4
same,"Specific activity, Triolein",[7],0
same,E (enantioselectivity),[8],17
same,E (enantioselectivity),[9],17
same,"Specific activity, Methyl butyrate",[10],57
same,"Specific activity, Ethyl caprylate",[11],63
